Among the data in ChEMBL document CHEMBL5550108, “Exploiting high-energy hydration sites for the discovery of potent peptide aldehyde inhibitors of the SARS-CoV-2 main protease with cellular antiviral activity” (Bioorg Med Chem, 2024) are EC50 and Selectivity ratio values, retold here.

The test system of the first test is SARS-CoV-2. In words: Antiviral activity against SARS-CoV-2 USA-WA1/2020 infected in human HeLa cells harbouring ACE2 assessed as reduction in cytopathic effect pretreated with cells followed by viral infection and measured after 24 hrs by fluorescence based analysis. It is filed as functional, organism-based. The conditions noted are these: Severe acute respiratory syndrome coronavirus 2, USA-WA1/2020, HeLa. On the technique in general: Damage to the host cells serves as the signal in cytopathic effect assays.
One may read the EC50 as the concentration giving half of the maximal effect. Regarding `CC(C)(C(=O)N1C[C@H]2[C@@H]([C@H]1C(=O)N[C@H](C=O)C[C@@H]1CCNC1=O)C2(C)C)c1ccccc1`, the EC50 stood at 343 nM.

For the compound `Cc1cccc2cc(C(=O)N3C[C@H]4[C@@H]([C@H]3C(=O)N[C@H](C=O)C[C@@H]3CCNC3=O)C4(C)C)[nH]c12`, the EC50 was determined as 1300 nM. The same measure, in the same setting: the result for `Cc1cccc2[nH]c(C(=O)N3C[C@H]4[C@@H]([C@H]3C(=O)N[C@H](C=O)C[C@@H]3CCNC3=O)C4(C)C)cc12` reads 1400 nM; that for `CC1(C)[C@@H]2[C@@H](C(=O)N[C@H](C=O)C[C@@H]3CCNC3=O)N(C(=O)C3(c4ccccc4)CC3)C[C@@H]21`, 196 nM. On the same count and under the same terms, the result for `CC1(C)[C@@H]2[C@@H](C(=O)N[C@H](C=O)C[C@@H]3CCNC3=O)N(C(=O)c3cc4c(C#N)cccc4[nH]3)C[C@@H]21` reads 8500 nM; that for `CC1(C)[C@@H]2[C@@H](C(=O)N[C@H](C=O)C[C@@H]3CCNC3=O)N(C(=O)C3(c4cccc(Cl)c4)CC3)C[C@@H]21`, 90 nM.

As for `CC(C)(C)CC(=O)N1C[C@H]2[C@@H]([C@H]1C(=O)N[C@H](C=O)C[C@@H]1CCNC1=O)C2(C)C`, the EC50 amounted to 1100 nM. Take `CC1(C)[C@@H]2[C@@H](C(=O)N[C@H](C=O)C[C@@H]3CCNC3=O)N(C(=O)C3(c4ccccc4)CCCC3)C[C@@H]21`: the EC50 came to 110 nM. On to `CC1(C)[C@@H]2[C@@H](C(=O)N[C@H](C=O)C[C@@H]3CCNC3=O)N(C(=O)CC3CCCCC3)C[C@@H]21`, for which the half-maximal effective concentration (EC50) is 340 nM. Still for that read-out and setting: the result for `CC1(C)[C@@H]2[C@@H](C(=O)N[C@H](C=O)C[C@@H]3CCNC3=O)N(C(=O)Cc3ccccc3)C[C@@H]21` reads 530 nM; that for `CC(C)c1ccc(F)c2[nH]c(C(=O)N3C[C@H]4[C@@H]([C@H]3C(=O)N[C@H](C=O)C[C@@H]3CCNC3=O)C4(C)C)cc12`, 120 nM; that for `CC1(C)[C@@H]2[C@@H](C(=O)N[C@H](C=O)C[C@@H]3CCNC3=O)N(C(=O)c3cc4c(F)cccc4[nH]3)C[C@@H]21`, 1800 nM. The same measure, in the same setting: then `CC1(C)[C@@H]2[C@@H](C(=O)N[C@H](C=O)C[C@@H]3CCNC3=O)N(C(=O)c3cc4ccc(F)cc4[nH]3)C[C@@H]21`, with 1800 nM. Still for that read-out and setting: then `CC(C)Oc1cccc2[nH]c(C(=O)N3C[C@H]4[C@@H]([C@H]3C(=O)N[C@H](C=O)C[C@@H]3CCNC3=O)C4(C)C)cc12`, with 250 nM; and `CC(C)c1ccc(Cl)c2[nH]c(C(=O)N3C[C@H]4[C@@H]([C@H]3C(=O)N[C@H](C=O)C[C@@H]3CCNC3=O)C4(C)C)cc12`, with 270 nM.

Turning to `CC1(C)[C@@H]2[C@@H](C(=O)N[C@H](C=O)C[C@@H]3CCNC3=O)N(C(=O)c3cc4cccc(C#N)c4[nH]3)C[C@@H]21`, the EC50 came out at 410 nM. Still for that read-out and setting: the result for `O=C[C@H](C[C@@H]1CCNC1=O)NC(=O)[C@@H]1C[C@@H](C2CCCCC2)CN1C(=O)c1cc2ccccc2[nH]1` reads 770 nM. The same measure, in the same setting: then `CC1(C)[C@@H]2[C@@H](C(=O)N[C@H](C=O)C[C@@H]3CCNC3=O)N(C(=O)c3cc4cc(F)ccc4[nH]3)C[C@@H]21`, with 4000 nM; and `CC1(C)[C@@H]2[C@@H](C(=O)N[C@H](C=O)C[C@@H]3CCNC3=O)N(C(=O)c3cc4cccc(F)c4[nH]3)C[C@@H]21`, with 720 nM; and `Cc1cccc([C@@H](C)C(=O)N2C[C@H]3[C@@H]([C@H]2C(=O)N[C@H](C=O)C[C@@H]2CCNC2=O)C3(C)C)c1`, with 170 nM. Same read-out and setting: then `CCc1cccc2[nH]c(C(=O)N3C[C@H]4[C@@H]([C@H]3C(=O)N[C@H](C=O)C[C@@H]3CCNC3=O)C4(C)C)cc12`, with 630 nM; and `COc1cccc2cc(C(=O)N3C[C@H]4[C@@H]([C@H]3C(=O)N[C@H](C=O)C[C@@H]3CCNC3=O)C4(C)C)[nH]c12`, with 1300 nM; and `CC1(C)C[C@@H](C(=O)N[C@H](C=O)C[C@@H]2CCNC2=O)N(C(=O)c2cc3ccccc3[nH]2)C1`, with 7100 nM. As to `O=C[C@H](C[C@@H]1CCNC1=O)NC(=O)[C@@H]1CC2(CC2)CN1C(=O)c1cc2ccccc2[nH]1`, the EC50 came out at 9200 nM. Still for that read-out and setting: then `COc1cccc2[nH]c(C(=O)N3C[C@H]4[C@@H]([C@H]3C(=O)N[C@H](C=O)C[C@@H]3CCNC3=O)C4(C)C)cc12`, with 8800 nM; and `CC(C)(C)CCC(=O)N1C[C@H]2[C@@H]([C@H]1C(=O)N[C@H](C=O)C[C@@H]1CCNC1=O)C2(C)C`, with 690 nM. Same read-out and setting: then `CC1CCC(CC(=O)N2C[C@H]3[C@@H]([C@H]2C(=O)N[C@H](C=O)C[C@@H]2CCNC2=O)C3(C)C)CC1` (some centres undefined), with 160 nM. On the same count and under the same terms, then `CC1(C)[C@@H]2[C@@H](C(=O)N[C@H](C=O)C[C@@H]3CCNC3=O)N(C(=O)c3cc4cccc(Cl)c4[nH]3)C[C@@H]21`, with 300 nM. As to `CC(C)c1cccc2[nH]c(C(=O)N3C[C@H]4[C@@H]([C@H]3C(=O)N[C@H](C=O)C[C@@H]3CCNC3=O)C4(C)C)cc12`, the EC50 was found to be 370 nM. On the same count and under the same terms, then `CC1(C)[C@@H]2[C@@H](C(=O)N[C@H](C=O)C[C@@H]3CCNC3=O)N(C(=O)C3(O)CCCCC3)C[C@@H]21`, with 2200 nM; and `C[C@@H](C(=O)N1C[C@H]2[C@@H]([C@H]1C(=O)N[C@H](C=O)C[C@@H]1CCNC1=O)C2(C)C)c1ccccc1`, with 300 nM; and `C[C@H](C(=O)N1C[C@H]2[C@@H]([C@H]1C(=O)N[C@H](C=O)C[C@@H]1CCNC1=O)C2(C)C)C1CCCCC1`, with 470 nM. On the same count and under the same terms, the result for `C[C@@H](C(=O)N1C[C@H]2[C@@H]([C@H]1C(=O)N[C@H](C=O)C[C@@H]1CCNC1=O)C2(C)C)C1CCCCC1` reads 300 nM; that for `CC1(C)[C@@H]2[C@@H](C(=O)N[C@H](C=O)C[C@@H]3CCNC3=O)N(C(=O)c3cc4cccc(C(F)(F)F)c4[nH]3)C[C@@H]21`, 240 nM; that for `CC1(C)[C@@H]2[C@@H](C(=O)N[C@H](C=O)C[C@@H]3CCNC3=O)N(C(=O)c3cc4ccccc4[nH]3)C[C@@H]21`, 2500 nM.

For another test, the system named is SARS-CoV-2. Put plainly: Selectivity ratio of EC50 for antiviral activity against SARS-CoV-2 USA-WA1/2020 infected in human HeLa cells harbouring ACE2 to IC50 for inhibition of C terminal 6 his tagged SARS-CoV-2 main protease expressed in Escherichia coli BL-21-Gold(DE3) cells. It is filed as functional.
Details: not given
For the compound `O=C[C@H](C[C@@H]1CCNC1=O)NC(=O)[C@@H]1C[C@@H](C2CCCCC2)CN1C(=O)c1cc2ccccc2[nH]1`, the Selectivity ratio is 30.

Regarding `CC1(C)C[C@@H](C(=O)N[C@H](C=O)C[C@@H]2CCNC2=O)N(C(=O)c2cc3ccccc3[nH]2)C1`, the Selectivity ratio is recorded as 30. Still for that read-out and setting: then `O=C[C@H](C[C@@H]1CCNC1=O)NC(=O)[C@@H]1CC2(CC2)CN1C(=O)c1cc2ccccc2[nH]1`, with 30; and `CC1(C)[C@@H]2[C@@H](C(=O)N[C@H](C=O)C[C@@H]3CCNC3=O)N(C(=O)c3cc4ccccc4[nH]3)C[C@@H]21`, with 30.
